Earlier results on eight compounds are cited in patent publication US20160317408A1, “KERATIN FIBRE DYEING METHOD” (ALFA PARF GROUP S.p.A., priority 2015, published 2016).

The conditions of data set [1]: value assigned from SCCS memorandum class; composition containing the dye.
The conditions of data set [2]: SCCS Opinion 1509/13, Memorandum on hair dye chemical sensitisation.

In the case of `Nc1ccc(OCCO)c(N)c1` [2,4-diaminophenoxyethanol], the “individual sensitisation index value of the dye” value in data set [1] is given as 2. In addition, the sensitising power classification result in data set [2] is on record as “Moderate”. Regarding `Nc1ncccc1O` [2-Amino-3-hydroxypyridine], the sensitising power classification result in data set [2] is recorded as “not classifiable”. Regarding `Cc1c(O)cccc1O` [2-methylresorcinol], the “individual sensitisation index value of the dye” value in data set [1] is 2. For the same compound, in data set [2], the sensitising power classification result is “Moderate”. Regarding `Oc1ccc(Cl)c(O)c1` [4-chlororesorcinol], the “individual sensitisation index value of the dye” value in data set [1] is on record as 2. In addition, the sensitising power classification result in data set [2] is “Moderate”. Regarding `Nc1ccc(N(CCO)CCO)cc1` [N,N-bis(2-hydroxyethyl)-p-phenylenediamine], the “individual sensitisation index value of the dye” value in data set [1] is given as 1. The sensitising power classification result in data set [2] is recorded as “Strong”.

For `Nc1ccc(NCCO)cc1` [hydroxyethyl-p-phenylenediamine], the sensitising power classification entry in data set [2] is “Strong”. On to `Nc1ccc(N)cc1` [p-phenylenediamine], for which the “individual sensitisation index value of the dye” value in data set [1] was 0. Further, the sensitising power classification result in data set [2] is “Extreme”. As to `Oc1cccc(O)c1` [resorcinol], the sensitising power classification result in data set [2] was “Strong”.
